This note sets out measurements from patent US20120232058A1, “SUBSTITUTED PYRIDINE DERIVATIVES AND THEIR MEDICAL USE” (NEUROSEARCH A/S, priority 2009, published 2012).

For experiment [1], the target named is T1, human Kv7.2+3 (Homo sapiens, UniProt O43525+O43526). The experiment in a line: patch-clamp, HEK293 cell lines stably expressing human Kv7.2+3 channels. It counts as cell-based. Details: expressed in transfected cells. Conditions: −30 mV, 20 ms, baseline current defined as 100%. An excerpt:
The effect obtained by these channel activators is described as a percentage increase in baseline current at a given concentration. The baseline current is defined as 100%, and an increase in current is expressed relative to this, i.e. an increase from 1 nA to 1.2 nA is reported as 120%.
In general terms: Patch clamp records ionic current or voltage across a cell membrane.

In experiment [2] the target is T1, human Kv7.2+3. The experiment in a line: FLIPR-based thallium influx characterization of Kv7.2+3 modulators. It counts as cell-based. Details: expressed in transfected cells; host or cells: HEK293. Conditions: for EC50: HEK293 cells over-expressing human Kv7.2+3, Tl+ influx, relative to retigabine control responses; for Efficacy: maximal response relative to the reference (retigabine) response. The method, then:
This experiment determines the ability of a test compound to modulate the activity of Kv7.2+3 channels heterologously expressed in human HEK293 cells. The ability is determined relative to retigabine. The activity is determined using a standard thallium (I) sensitive assay, e.g. using a fluorometric method in a Fluorescent Image Plate Reader (FLIPR) as described below in more detail.
Full concentration/response curves are generated and EC50 values are calculated based on max values. EC50 values (Effective Concentration) represent the concentration of the test substance, at which 50% of the channel activity is obtained when compared to retigabine control responses. Maximal response determined relative to the reference (retigabine) response is calculated.
Human HEK293 cells over-expressing human Kv7.2+3 are grown in culture medium (DMEM supplemented with 10% foetal bovine serum), in polystyrene culture flasks ([…]) in a humidified atmosphere of 5% CO2 in air, at 37° C. Cell confluence should be 80-90% on day of plating. Cells are rinsed with 4 ml of PBS (phosphate buffered saline) and incubated 2 min with 1 ml of Trypsin-EDTA. After addition of 25 ml of culture medium cells are re-suspended by trituration with a 25 ml pipette.
The cells are seeded at a density of ˜3×10^6 cells/ml (25 μl/well) in black-walled, clear bottom, 384-well plates pre-treated with 0.01 g/I poly-D-lysin (20 μl/well for 30 min). Plated cells were allowed to proliferate for 24 h before loading with dye.
BTC-AM ([…], Invitrogen) is added 25.5 μl DMSO. The BTC-AM stock solution (2 mM) is diluted to a final concentration of 2 μM in Cl^− free assay buffer (in mM: 140 Na^+-gluconate, 2.5 K^+-gluconate, 6 Ca2^+-gluconate, 1 Mg^2+ gluconate, 5 glucose, 10 HEPES, pH 7.3) containing 2 μM ouabain, 2 mM amaranth and 1 mM tartrazine. […]
After the loading period, the TI^+-sensitive BTC fluorescence signal is measured over time using a FLIPR.
• Temperature: Room temp. • First addition: 12 μl test or control compound after 15 sec at a rate of 30 μl/sec and starting height of 20 μl • Second addition: 12 μl stimulus buffer (CI^− free assay buffer supplemented with 1 mM TI2SO4, 5 mM K2SO4 as well as the quenchers amaranth (2 mM) and tartrazine (1 mM)) is added after an additional 3 minutes at a rate of 30 μl/sec and starting height of 30 μl • Reading intervals: First sequence—3 sec×5, 2 sec×24 and 5 sec×25 Second sequence—1 sec×5, 2 sec×24 and 5 sec×36 Addition plates (compound plate and stimulus plate) are placed in positions 2 and 3, respectively. […] Fluorescence obtained after stimulation is corrected for the mean basal fluorescence (in Cl^− free assay buffer). […]

By EC50 is commonly meant the concentration needed to bring the measured effect to its halfway point. A high value points to weaker potency.

`Cc1ccoc1C(=O)Nc1c(C)cc(N2CCCOCC2)nc1C(C)C` [Compound 1.1, 3-Methyl-furan-2-carboxylic acid(2-isopropyl-4-methyl-6-[1,4]oxazepan-4-yl-pyridin-3-yl)-amide]: the “IK (%)” value in experiment [1] (conc. 0.03 μM) is 177 (n = 2) %. Besides, in experiment [1] (conc. 0.3 μM), the “IK (%)” value came out at 249%. For the same compound, in experiment [2], it took 0.034 µM to reach a half-maximal effect (EC50) and the Efficacy was found to be 82%.
On to `Cc1ccoc1C(=O)Nc1c(C)cc(N2CCCOCC2)nc1C` [Compound 1.2, 3-Methyl-furan-2-carboxylic acid(2,4-dimethyl-6-[1,4]oxazepan-4-yl-pyridin-3-yl)-amide], for which the “IK (%)” value in experiment [1] (conc. 0.3 μM) was determined as 180%. In addition, in experiment [2], the EC50 amounted to 4.1 µM and the Efficacy stood at 102%.
